Experimental data from US20140357560A1, “PTH-CONTAINING THERAPEUTIC/PROPHYLACTIC AGENT FOR OSTEOPOROSIS, CHARACTERIZED IN THAT PTH IS ADMINISTERED ONCE A WEEK IN A UNIT DOSE OF 100 TO 200 UNITS” (ASAHI KASEI PHARMA CORPORATION, priority 2009, published 2014).
Where a name gives a salt, the structure may show the parent alone. One block for each compound: values may come before it.

Tests used:
[1] = test system: nausea and vomiting associated with administration of the test drug; experiment: Working Example 2: drugs to treat nausea and vomiting associated with the test drug; settings: for efficacy against nausea and vomiting associated with the test drug (summary): summary of Table 18
Excerpt: The administration period and efficacy of various drugs to treat nausea and vomiting associated with administration of the test drug were studied.

[2] = conventional daily administration; moderate renal dysfunction; Non-patent Reference 32; cited from earlier work
[3] = 20 μg/day; blood samples 4 to 6 hours after administration; Non-patent Reference 1; cited from earlier work
[4] = test system: osteoporosis patients having normal renal function, mild or moderate renal dysfunction; settings: in vivo
[5] = in vivo
Protocol: The serum calcium was measured at the start, after 12 weeks, after 24 weeks, after 48 weeks, and after 72 weeks. Serum calcium standard value: 8.4 to 10.4 mg/dL. The standard concomitant drug (610 mg of calcium, 400 IU of vitamin D3, and 30 mg of magnesium) was taken once a day after dinner from the time of consent to the end of the trial.

[6] = Working Example 1: serum calcium concentration / hypercalcemia; assay type: in vivo, human
Protocol: Both the 5 and 100 unit groups were administered two tablets of a calcium agent (containing 500 mg of precipitated calcium carbonate [200 mg as calcium] per tablet) once a day.

[7] = in vivo; remark: listed apart in the source
Protocol: The ratio of the urinary calcium value/urinary creatine value was compared before beginning administration and in the weeks of observation. The urinary calcium was measured at the start, after 12 weeks, after 24 weeks, after 48 weeks, and after 72 weeks.

Compound: CCN(CC)CCNC(=O)c1cc(Cl)c(N)cc1OC [Primperan, metoclopramide]
- Effective or ineffective ([1]; Event: Nausea, given Before test drug, listed as Primperan tablet): Ineffective
- efficacy against nausea and vomiting associated with the test drug (summary) [1]: effective

Compound: CCOc1cc(N)c(Cl)cc1C(=O)NCC1CN(Cc2ccc(F)cc2)CCO1 (stereo not shown) [Gasmotin, mosapride citrate]
- efficacy against nausea and vomiting associated with the test drug (summary) [1]: effective

Compound: PTH: parathyroid hormone preparation given daily (20 μg/day) in cited trials, conventional daily administration
- osteoporosis patients with serum calcium exceeding 11.0 mg/mL after administration [2]: 11.76%
- patients with hypercalcemia [3]: 11%
- patients with persistent hypercalcemia [3]: 3%

Compound: CN1CCN(CCCN2c3ccccc3Sc3ccc(Cl)cc32)CC1.O=C(O)/C=C\C(=O)O.O=C(O)/C=C\C(=O)O [Novamine]
- Effective or ineffective ([1]; Event: Nausea, given Before test drug): Ineffective

Compound: Cc1c(OCC(F)(F)F)ccnc1C[S+]([O-])c1nc2ccccc2[nH]1 (stereo not shown) [Takepron OD, lansoprazole]
- efficacy against nausea and vomiting associated with the test drug (summary) [1]: effective

- corrected serum calcium value after administration, maximum [5]: 11.6 mg/dL
- corrected serum calcium value after administration, minimum [5]: 8.5 mg/dL
- corrected serum calcium value, range of the average [5]: 9.3 to 9.6 mg/dL
- hypercalcemia ([6]; once a week, either dose (5 or 100 units), during the administration period): did not cause hypercalcemia
- median percentage change in the urinary calcium value [7]: −14.7%
Compound: CC[C@H](C)[C@H](NC(=O)[C@H](CCC(=O)O)NC(=O)[C@H](CO)NC(=O)[C@@H](NC(=O)[C@@H](N)CO)C(C)C)C(=O)N[C@@H](CCC(N)=O)C(=O)N[C@@H](CC(C)C)C(=O)N[C@@H](CCSC)C(=O)N[C@@H](Cc1cnc[nH]1)C(=O)N[C@@H](CC(N)=O)C(=O)N[C@@H](CC(C)C)C(=O)NCC(=O)N[C@@H](CCCCN)C(=O)N[C@@H](Cc1cnc[nH]1)C(=O)N[C@@H](CC(C)C)C(=O)N[C@@H](CC(N)=O)C(=O)N[C@@H](CO)C(=O)N[C@@H](CCSC)C(=O)N[C@@H](CCC(=O)O)C(=O)N[C@@H](CCCN=C(N)N)C(=O)N[C@H](C(=O)N[C@@H](CCC(=O)O)C(=O)N[C@@H](Cc1c[nH]c2ccccc12)C(=O)N[C@@H](CC(C)C)C(=O)N[C@@H](CCCN=C(N)N)C(=O)N[C@@H](CCCCN)C(=O)N[C@@H](CCCCN)C(=O)N[C@@H](CC(C)C)C(=O)N[C@@H](CCC(N)=O)C(=O)N[C@@H](CC(=O)O)C(=O)N[C@H](C(=O)N[C@@H](Cc1cnc[nH]1)C(=O)N[C@@H](CC(N)=O)C(=O)N[C@@H](Cc1ccccc1)C(=O)O)C(C)C)C(C)C [teriparatide acetate]
- incidence of side effects relative to the control [4]: about twice that of the control
- corrected serum calcium, test drug groups versus control group [5]: No significant differences could be found
- manifestation of hypercalcemia or hypercalciuria [5]: No manifestation of hypercalcemia or hypercalciuria was found
- changes in the serum calcium concentration ([6]; 5 or 100 units once a week, high-risk and low-risk patients): no tendency for the serum calcium to rise was seen

Compound: O=c1[nH]c2ccccc2n1CCCN1CCC(n2c(=O)[nH]c3cc(Cl)ccc32)CC1 [Nauzelin, domperidone]
- Effective or ineffective ([1]; Event: Nausea, given Before test drug, taken after breakfast, lunch, and dinner): Effective
- Effective or ineffective ([1]; Event: Vomiting, given Before test drug, taken after breakfast, lunch, and dinner): Effective
- efficacy against nausea and vomiting associated with the test drug (summary) [1]: effective

Compound: NC(N)=Nc1nc(CSCCC(N)=NS(N)(=O)=O)cs1 [Gaster D, famotidine]
- Effective or ineffective ([1]; Event: Nausea, before or after test drug: Unknown): Effective
- efficacy against nausea and vomiting associated with the test drug (summary) [1]: effective
